According to US10233174B2 (THERAVANCE BIOPHARMA R&D IP, LLC, priority 2017, dated 2019):

Target: β-glucuronidase (Escherichia coli, UniProt P05804)
Assay: Assay 11: Release of H2S and Tofacitinib (incubation with β-glucuronidase and monobromobimane)
Assay type: in vitro ADME
Settings: 50 μM compound 1, β-glucuronidase 100 units/mL, MBB 100 μM, pH 7.4, 37° C.
Procedure: The method used to detect H2S was previously described in Tan et al., Nature Scientific Reports, 2017, 7:46278, DOI: 10.1038/srep46278.
Compound 1 (50 μM) was incubated with β-glucuronidase (100 units/mL) and monobromobimane (MBB, 100 μM) in potassium phosphate buffer pH 7.4 (100 mM) for 60 min at 37° C. In addition, incubations were carried out with and without a) β-glucuronidase and b) MBB as negative control. Incubation of SN38-Glucuronide was also carried out with β-glucuronidase as a positive control for β-glucuronidase activity. The reactions were terminated at 60 min by the addition of three volumes of ice-cold acetonitrile to the incubation mixture. The incubation samples were centrifuged (4° C., 2200×g, 10 minutes) and the supernatants were transferred to amber HLPC vials. All samples were stored at 4° C. until the analysis. The samples were analyzed using a Thermo Orbitrap LC-MS/MS system.
H2S was trapped using monobromobimane (MBB) to form sulfide dibimane (SDB).

Chain of β-glucuronidase (P05804 whole entry): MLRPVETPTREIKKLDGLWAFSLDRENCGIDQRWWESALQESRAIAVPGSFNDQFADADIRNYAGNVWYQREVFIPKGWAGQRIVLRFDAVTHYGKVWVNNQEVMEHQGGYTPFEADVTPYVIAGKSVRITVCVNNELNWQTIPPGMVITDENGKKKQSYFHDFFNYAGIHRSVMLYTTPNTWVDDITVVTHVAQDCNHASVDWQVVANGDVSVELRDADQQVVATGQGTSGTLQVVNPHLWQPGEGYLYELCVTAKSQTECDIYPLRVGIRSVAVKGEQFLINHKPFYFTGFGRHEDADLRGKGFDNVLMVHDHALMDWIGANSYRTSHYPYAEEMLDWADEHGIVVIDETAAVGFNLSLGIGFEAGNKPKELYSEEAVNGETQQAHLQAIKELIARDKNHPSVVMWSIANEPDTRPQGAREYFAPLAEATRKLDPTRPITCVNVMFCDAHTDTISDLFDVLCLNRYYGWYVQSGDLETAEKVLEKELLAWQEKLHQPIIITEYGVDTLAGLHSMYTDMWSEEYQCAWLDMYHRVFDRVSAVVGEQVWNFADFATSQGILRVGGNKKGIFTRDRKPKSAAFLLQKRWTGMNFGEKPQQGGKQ

C[C@@H]1CCN(C(=O)CC#N)C[C@@H]1N(C)c1ncnc2c1ccn2C(=O)N(C)CCN(C)C(=S)OCc1ccc(O[C@@H]2O[C@H](C(=O)O)[C@@H](O)[C@H](O)[C@H]2O)c([N+](=O)[O-])c1 [Compound 1, (2S,3S,4S,5R,6S)-6-(4-((((2-(4-(((3R,4R)-1-(2-cyanoacetyl)-4-methylpiperidin-3-yl)(methyl)amino)-N-methyl-7H-pyrrolo[2,3-d]pyrimidine-7-carboxamido)ethyl)(methyl)carbamothioyl)oxy)methyl)-2-nitrophenoxy)-3,4,5-trihydroxytetrahydro-2H-pyran-2-carboxylic acid]
% (MS Peak Area) (60 min) of compound 1 (Parent) remaining: 0%
